Assay results published in US20040147494A1, “Use” (priority 2001, published 2004).

What was measured:
[1] = target: T1, 11 β-HSD type 1 (Rattus norvegicus, UniProt P16232); assay: biochemical; type: biochemical; details: rat liver cytosol 25 μL, 90 min, 37° C., cortisone (E) to cortisol (F), vs control without inhibitor, means n=2; for inhibition at 10 µM: read-out: % […]→F ± SD, inhibitor 10 μM, read-out: % INHIBITION E→F ± SD
T1 construct: Both the kidneys and livers were homogenised on ice in PBS- sucrose buffer; tissue Harlan Olac, Bicester, Oxon, UK (rats); host or cells: rat liver homogenate supernatant (Wistar rat)
T1 sequence (P16232 whole entry): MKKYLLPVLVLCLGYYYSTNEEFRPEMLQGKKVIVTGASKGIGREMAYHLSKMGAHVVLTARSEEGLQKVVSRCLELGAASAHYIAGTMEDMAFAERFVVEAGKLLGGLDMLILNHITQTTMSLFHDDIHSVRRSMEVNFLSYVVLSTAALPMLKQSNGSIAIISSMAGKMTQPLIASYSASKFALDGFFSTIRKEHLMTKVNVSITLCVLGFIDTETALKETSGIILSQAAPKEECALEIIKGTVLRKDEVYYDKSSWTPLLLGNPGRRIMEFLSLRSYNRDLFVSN

[2] = target: T2, 11 β-HSD type 2 (Rattus norvegicus, UniProt P50233); assay: biochemical; details: read-out: % […]→E ± SD, inhibitor 10 μM; rat kidney cytosol 150 μL, 60 min, 37° C.; cortisol (F) to cortisone (E); vs control without inhibitor; means n=2; read-out: % INHIBITION F→E ± SD
T2 construct: Both the kidneys and livers were homogenised on ice in PBS- sucrose buffer; tissue Harlan Olac, Bicester, Oxon, UK (rats); host or cells: rat kidney homogenate supernatant (Wistar rat)
T2 sequence (P50233 1-400): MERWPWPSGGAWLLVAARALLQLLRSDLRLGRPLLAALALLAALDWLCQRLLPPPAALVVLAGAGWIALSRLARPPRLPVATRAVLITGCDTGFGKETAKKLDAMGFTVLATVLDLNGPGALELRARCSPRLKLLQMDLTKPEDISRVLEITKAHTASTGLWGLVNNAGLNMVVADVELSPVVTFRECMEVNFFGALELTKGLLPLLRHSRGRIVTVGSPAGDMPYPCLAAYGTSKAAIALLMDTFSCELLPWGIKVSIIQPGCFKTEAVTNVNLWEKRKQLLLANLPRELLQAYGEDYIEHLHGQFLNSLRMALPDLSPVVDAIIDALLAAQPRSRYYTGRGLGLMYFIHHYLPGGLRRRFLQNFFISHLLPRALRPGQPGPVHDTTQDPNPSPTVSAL
Description: Enzymes—Rat livers and rat kidneys were obtained from normal Wistar rats (Harlan Olac, Bicester, Oxon,UK). Both the kidneys and livers were homogenised on ice in PBS- sucrose buffer (1 g/10 ml) using an Ultra-Turrax. After the livers and kidneys were homogenised the homogenate was centrifuged for five minutes at 4000 rpm. The supernatant obtained was removed and stored in glass vials at −20° C. The amount of protein per μl of rat liver and kidney cytosol was determined using the Bradford method.
The same procedure was used for the 11 β-HSD type 2 assay, the conversion F to E, to determine the amount of rat kidney to be used and the incubation time.
In these assays the influence of different inhibitors on the 11 β-HSD activity both in reductive (type 1) and oxidative (type 2) directions were assessed. In the reductive direction E is the substrate and F the product and visa versa in the case of oxidation. The method described here is for the oxidative direction.
The substrate solution contained about 50,000 cpm/ml ^3H—F in PBS-sucrose and 0.5 pM F. 1 ml of the substrate solution was added to each tube, the inhibitors were also added, at a 10 μM concentration, to each tube except to the “control” and “blank” tubes. 150 μL was added to all tubes except to the blanks, this was done to correct for the amount of ^3H[…]. The tubes were incubated for 60 minutes in a mechanically shaken water bath at 37° C. […] After incubation 50 μL of recovery was added to correct for the losses made in the next steps, containing 5000 cpm/50 μL of ^14C-E and 50 μg/50 μL of unlabelled E (to visualise the spot on the TLC-plate). The aqueous mixture was then extracted with 4 ml of ether (2×30 sec cycle, vortex mix). After freezing the aqueous phase, the ether (upper) layer was decanted into smaller tubes and evaporated at 45° C. until completely dry. The residue was then re-dissolved in 6 drops of ether and transferred to a TLC-plate. The TLC-plate was developed in chloroform:methanol (9:1 v/v) solvent system, the TLC-plate ran for about 90 minutes until the solvent front had moved about 18 cm. The position of the product E was visualised under UV-light and cut out from the TLC-plate and put into scintillation vials. Radioactivity was eluted over 5 minutes with 0.5 ml methanol. 0.5 ml of PBS- sucrose and 10 ml of Ecoscint were then added and vortex mixed before counting in the scintillation counter. Before counting the samples, two total activity vials were prepared. These contained 0.5 ml of the substrate solution, 50 μL of the recovery, 0.5 ml of methanol and 10 ml of Ecoscint. These two total activity vials were needed to determine the amount of ^14C-E and ^3H—F added in the beginning to make the calculations.
To look at the percentage of inhibition four different concentrations, 1, 5, 10 and 20 μM, were used. The method for both the rat liver, type 1 the reductive, and rat kidney, type 2 the oxidative, stay the same throughout the entire experiment.
In this experiment the influence of different inhibitors on the conversion E to F and F to E was determined. The reason why inhibition in both directions was examined was to make a comparison between the inhibitors and which type of 11 β-HSD they inhibit more. Thirty-two compounds were screened for their ability to inhibit 11 β-HSD type 1 (E to F) and type 2 (F to E). […] The percent of inhibition was calculated as the percentage of decrease in radio labelled ^3H-E and ^3H—F of product formed, compared with the control activity (the tubes without an inhibitor in it). All the results calculated are means, n=2.

Compound	melting point [°C]	inhibition at 10 µM [1] [%]	inhibition at 10 µM [2] [%]	% INHIBITION E→F ± SD ([1]; inhibitor 10 μM, 10 µM) [%]
CC(=O)O[C@H]1CC[C@@]2(C)C(CC[C@]3(C)C2CC=C2[C@@H]4C[C@@](C)(C(=O)OCc5ccccc5)CC[C@]4(C)CC[C@]23C)C1(C)C (stereo partly drawn) [STX 354, 11-Deoxo-3β-aectoxy-18β-glycyrrhetinic acid benzyl ester]	207 to 208	-1.18 ± 9.22	13.6 ± 1.42	–
CC(O)C1CCC2C3CCC4=C[C@@H](O)CC[C@]4(C)C3[C@H](O)C[C@]12C (stereo in doubt) [STX125, 3,11,20-Trihydroxyproqesterone]	122 to 125	85.1 ± 3.4	72.2 ± 4.3	–
CC(=O)C1CCC2C3CCC4=CC(=O)CC[C@]4(C)C3[C@H](OCc3ccccc3)C[C@]12C (stereo partly drawn) [STX 185, 11α-Benzyloxyprogesterone]	207 to 210	14	18.9 ± 4.2	16.1 ± 10.4
CO[C@@H]1C[C@]2(C)C(C(C)=O)CCC2C2CCC3=CC(=O)CC[C@]3(C)C21 (stereo partly drawn) [STX193, 11α-Methoxyprogesterone]	164 to 165	48.1 ± 0.313	68.2 ± 3.68	–
CC(O)C1CCC2C3CCC4=C[C@@H](O)CC[C@]4(C)C3[C@H](OCc3ccccc3)C[C@]12C (stereo in doubt) [STX-126, 11α-benzyloxy-3,20-dihydroxyprogesterone]	117 to 118	33.8 ± 0.354	13.5 ± 2.97	–
